Experimental data published in PubChem BioAssay (NCI).
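Growth conditions: 96-well plates. Treatment: test compound, 48 hours, 5 concentrations. Analysis: linear interpolation between bracketing concentrations; unreached endpoints set to highest concentration. TGI: concentration producing complete growth inhibition.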

Legend:
Test in all cases: NCI-60 cell line screen, 48 h
UO-31 renal = tested on: UO-31 renal
LXFL 529 NSCLC = tested on: LXFL 529 NSCLC
KM20L2 colon = tested on: KM20L2 colon
DMS 114 small cell lung = tested on: DMS 114 small cell lung
M19-MEL melanoma = tested on: M19-MEL melanoma
DLD-1 colon = tested on: DLD-1 colon
DMS 273 small cell lung = tested on: DMS 273 small cell lung
SNB-78 CNS = tested on: SNB-78 CNS
RXF-631 renal = tested on: RXF-631 renal
XF 498 CNS = tested on: XF 498 CNS
HOP-18 NSCLC = tested on: HOP-18 NSCLC

Compound	TGI (UO-31 renal)	other results
Clc1ccc(C(OCn2ccnc2)c2nc3ccccc3[nH]2)c(Cl)c1 (centres undefined)	92.1 µM	
CC1=C(C(=O)NNC(=O)C[N+](C)(C)C)CC(C(=O)NNC(=O)C[N+](C)(C)C)=C(C)N1	> 100 µM	
Nc1nccc(NCC2(CO)CC(CCc3ccccc3)C2)n1 (centres undefined)	32.3 µM	
COc1ccc(NC(=S)c2ccc([N+](=O)[O-])o2)cc1	5.09 µM	
Cc1cccc(C)c1NC(=O)C(=O)CC(=O)c1sc(Nc2c(C)cccc2C)nc1C	> 100 µM	
CN(CC(=O)Nc1ccccc1C(=O)O)c1ccccc1	> 100 µM	
Cc1cc(C=O)c2c(=O)c3c(O)ccc(/C=C/C(C)C)c3oc2c1	> 100 µM	TGI (LXFL 529 NSCLC): > 100 µM; TGI (KM20L2 colon): > 100 µM; TGI (DMS 114 small cell lung): > 100 µM; TGI (M19-MEL melanoma): > 100 µM; TGI (DLD-1 colon): > 100 µM; TGI (DMS 273 small cell lung): > 100 µM
CCOc1ccc(OP2(=O)NC(=O)C=C(C)N2)cc1 (centres undefined)	> 100 µM	TGI (SNB-78 CNS): > 100 µM; TGI (LXFL 529 NSCLC): > 100 µM; TGI (RXF-631 renal): > 100 µM; TGI (KM20L2 colon): > 100 µM; TGI (DMS 114 small cell lung): > 100 µM; TGI (M19-MEL melanoma): > 100 µM; TGI (XF 498 CNS): > 100 µM; TGI (DLD-1 colon): > 100 µM; TGI (DMS 273 small cell lung): > 100 µM; TGI (HOP-18 NSCLC): > 100 µM
COC(=O)/C(=N\N)C(C(=O)C(=O)Nc1cc(Cl)ccc1Cl)c1nc2ccc([N+](=O)[O-])cc2[nH]c1=O (centres undefined)	> 100 µM	
Fc1ccc2c(c1)SC1=Nc3sc4cc(F)ccc4[n+]3CN12	74.3 µM	
O=C(NC1CCCCC1)c1n[nH]nc1Cl	> 100 µM	
CCOC(=O)C1(C)CCC(C(=O)OC)C1=O (centres undefined)	> 100 µM	TGI (SNB-78 CNS): > 100 µM; TGI (LXFL 529 NSCLC): > 100 µM; TGI (KM20L2 colon): > 100 µM; TGI (DMS 114 small cell lung): 35.1 µM; TGI (M19-MEL melanoma): > 100 µM; TGI (XF 498 CNS): > 100 µM; TGI (DLD-1 colon): > 100 µM; TGI (HOP-18 NSCLC): > 100 µM
CN1S(=O)(=O)N(C)P12(N=P(CP(=NP13(N(C)S(=O)(=O)N1C)N(C)S(=O)(=O)N3C)(c1ccccc1)c1ccccc1)(c1ccccc1)c1ccccc1)N(C)S(=O)(=O)N2C	> 100 µM	TGI (SNB-78 CNS): > 100 µM; TGI (LXFL 529 NSCLC): > 100 µM; TGI (RXF-631 renal): > 100 µM; TGI (KM20L2 colon): > 100 µM; TGI (DMS 114 small cell lung): > 100 µM; TGI (M19-MEL melanoma): > 100 µM; TGI (XF 498 CNS): > 100 µM; TGI (DLD-1 colon): > 100 µM; TGI (DMS 273 small cell lung): > 100 µM; TGI (HOP-18 NSCLC): > 100 µM
S=c1[nH]nc(Cn2c3ccc(Br)cc3c3nc4ccccc4nc32)o1	40.8 µM	
O=C(c1c(F)c(F)c(F)c(F)c1F)n1c(=S)n(C(=O)c2c(F)c(F)c(F)c(F)c2F)c2ccccc21	> 100 µM	
CCCCCCC1OC23OC1CCC2C(O)CCC3O (centres undefined)	> 100 µM	
NC(Cc1cc(I)c(Oc2ccc(O)c(I)c2)c(I)c1)C(=O)O (centres undefined)	> 100 µM	
NS(=O)(=O)c1c(O)c2ccccc2oc1=O	> 100 µM	
N#CCC(=O)N/N=C\C(O)C(O)C(O)C(O)CO (centres undefined)	> 100 µM	
COC(=O)C1(CCCCl)CCCN1C(=O)OC(C)(C)C (centres undefined)	> 100 µM	
Cc1cnc2[nH]c(-c3cccc4ccccc34)cc(=O)c2c1	34 µM	
CCCCCC(=O)OC[n+]1cccc(-c2c(COC(=O)NC(C)C)c(COC(=O)NC(C)C)c3n2CCC3)c1	> 100 µM	
CN(/N=C/c1ccccn1)C1=NCCN1	> 100 µM	
CC(=O)Oc1ccc(-c2nnc(-c3ccc(OC(C)=O)cc3)nn2)cc1	> 100 µM	
CC(C)C(=O)Cc1ccc2ccccc2n1	> 100 µM	
C#CCN(C(=O)C(F)(F)F)C(/C=C\C(=O)OC)(C(=O)OCC)C(=O)OCC	> 100 µM	

Compound	TGI (UO-31 renal)	other results
NC(CCC(=O)O)C(=O)NC(Cc1ccc(N(CCCl)CCCl)cc1)C(=O)O (centres undefined)	> 100 µM	
COc1ccc(OC)c(/C=C2/C(=O)N=C(NC(C)=O)N2C)c1	> 100 µM	
O=C(/C=C/c1ccccc1)CCN1CCCCC1	> 100 µM	
Cc1cn([C@H]2C[C@@H](N3C(=O)c4ccccc4C3=O)[C@@H](CO[Si](C)(C)C(C)(C)C)O2)c(=O)[nH]c1=O	> 100 µM	
O=C1/C(=C/c2ccc(Br)s2)NC(=S)N1CN1CCCCC1	76.3 µM	
COC(=O)C1CC2CC1C1C2SC(F)(F)C1(F)F (centres undefined)	> 100 µM	
COC(=O)c1sc(=S)sc1SCc1cccc(CSc2sc(=S)sc2C(=O)OC)c1	> 100 µM	
O=C(O)c1ccccc1/C=C1\Cc2cc3c(cc2C1=O)CCC3	> 100 µM	
COc1cc(Nc2nc3cc(C)ccc3nc2-c2ccccc2)cc(OC)c1OC	77.7 µM	TGI (LXFL 529 NSCLC): > 100 µM; TGI (KM20L2 colon): > 100 µM; TGI (DMS 114 small cell lung): 31.5 µM; TGI (M19-MEL melanoma): 71 µM; TGI (XF 498 CNS): 42.1 µM; TGI (DMS 273 small cell lung): 49.6 µM; TGI (HOP-18 NSCLC): 73.1 µM
Cc1[nH]c(=O)c2oc3cc4ccccc4cc3c2c1C(=O)O	> 10 µM	
COC(=O)/C=C1\C(CO[Si](C)(C)C(C)(C)C)OC(n2ccc(=O)[nH]c2=O)C1O (centres undefined)	29.6 µM	
CO/C(N)=C(\C#N)N=Cc1ccsc1	> 100 µM	
Cc1nn(C(=O)Cc2ccccc2)c2c1C(c1ccc(/C=C/c3ccccc3)cc1)SC(N)=N2 (centres undefined)	> 100 µM	
Cc1ccc2c(=O)cc(-c3cc(C)sc3C)[nH]c2n1	> 100 µM	
COc1cc(S(=O)(=O)Nc2nc(-c3ccc(N=Cc4ccccc4O)cc3)cs2)ccc1Cl	> 100 µM	
N/C(=N\N=C\c1nc2ccccc2o1)c1cnccn1	> 100 µM	
Cc1csc(=Nc2ccccc2)n1CCC(O)(P(=O)(O)O)P(=O)(O)O	> 100 µM	
N#CCc1nc(-c2cc3ccccc3oc2=O)cs1	> 100 µM	
Cc1ccc2c(c1C)CC1(Cc3ccc(C)c(C)c3C1=O)C2=O (centres undefined)	> 100 µM	
Cc1nc2ccc(N=Nc3c(C)noc3C)cc2[nH]1	> 100 µM	
NCCc1ccc(S(=O)(=O)O)cc1[N+](=O)[O-]	> 100 µM	
N#CC1=C(S)N(C2OC(CO)C(O)C(O)C2O)C(c2ccccc2)=CC1c1ccco1 (centres undefined)	> 100 µM	
Cc1cc2nnn(C3CCCCO3)c2cc1C (centres undefined)	> 100 µM	
COc1ccc(/C=C2\C[C@H]3[C@@H]4CC=C5C[C@@H](O)CC[C@]5(C)[C@H]4CC[C@]3(C)\C2=N\O)cc1	71.6 µM	
C/C=C1/C=CC2c3[nH]c4ccccc4c3CCN2C1 (centres undefined)		TGI (LXFL 529 NSCLC): > 400 µM; TGI (RXF-631 renal): > 400 µM; TGI (KM20L2 colon): > 400 µM; TGI (DMS 114 small cell lung): > 400 µM; TGI (M19-MEL melanoma): > 400 µM; TGI (XF 498 CNS): > 400 µM; TGI (DLD-1 colon): > 400 µM; TGI (DMS 273 small cell lung): > 400 µM; TGI (HOP-18 NSCLC): 279 µM
CC1C(OS(=O)(=O)c2ccc3[nH]c(=S)sc3c2)CC2C3(C)CCC2(C(C)C(=O)O)C(O)C13 (centres undefined)	39.8 µM	

Compound	TGI (UO-31 renal)	other results
Cc1nc2ccc(S(=O)(=O)O)cc2c(=O)n1-c1ccc(C(=O)NN2C(=O)C(Cl)C2c2cccs2)cc1 (centres undefined)	> 100 µM	
CC(C)=CCC[C@@H](C)C1=C(N)C(O)=C(C)C(=O)C1=O	> 75 µM	
CC(C)(C)n1c(=O)n2c(-c3ccccc3)c(-c3ccccc3)n2c1=O	> 100 µM	
CC[C@@H]1CC[C@@H]2[C@H](CC[C@]3(C)[C@@H](O[N+](=O)[O-])CC[C@@H]23)[C@H]1C(C)=O	> 100 µM	
O=C(O)CCC(NC(=O)c1ccc(Nc2nc3ccc(C(F)(F)F)cc3nc2C(=O)O)cc1)C(=O)O (centres undefined)	> 100 µM	
CC(=O)n1c2ccc(Br)cc2c2nc3ccccc3nc21	> 100 µM	
CN(Cc1cccc2ccsc12)/N=C\c1ccc(Cl)cc1	> 100 µM	
CCOC(OCC)(OCC)C(Br)CC (centres undefined)	> 100 µM	TGI (SNB-78 CNS): > 100 µM; TGI (LXFL 529 NSCLC): > 100 µM; TGI (RXF-631 renal): > 100 µM; TGI (KM20L2 colon): > 100 µM; TGI (DMS 114 small cell lung): 25.3 µM; TGI (M19-MEL melanoma): > 100 µM; TGI (XF 498 CNS): > 100 µM; TGI (DLD-1 colon): > 100 µM; TGI (DMS 273 small cell lung): 34.5 µM; TGI (HOP-18 NSCLC): > 100 µM
O=c1c2sc3ccccc3sc=2c(=O)c2c(Cl)c(Cl)c(Cl)c(Cl)c12	> 100 µM	
O[C@@H]1[C@H](OC2c3ccccc3-c3ccccc32)[C@H](OCc2ccccc2)[C@@H]2OC[C@H]1O2	> 100 µM	
O=C1CSC(c2cc3cc(Br)ccc3nc2Cl)N1c1ccc(Cl)cc1 (centres undefined)	> 100 µM	
CCN(CC)c1ccc(Cl)c2c1C(O)(C(C)C)C2(C)C (centres undefined)	32 µM	TGI (SNB-78 CNS): 69.4 µM; TGI (LXFL 529 NSCLC): 31.5 µM; TGI (KM20L2 colon): 27.8 µM; TGI (DMS 114 small cell lung): 36.5 µM; TGI (M19-MEL melanoma): 29.4 µM; TGI (DLD-1 colon): 31.4 µM; TGI (DMS 273 small cell lung): 29.5 µM; TGI (HOP-18 NSCLC): 27.3 µM
CCOc1ccc(NC(=O)C(=O)C(/C(=N/N)C(=O)OC)c2nc3ccc([N+](=O)[O-])cc3[nH]c2=O)cc1 (centres undefined)	> 100 µM	
CCc1nc(N)nc(N)c1-c1ccc(N2CCOCC2)c(N=[N+]=[N-])c1	> 100 µM	
CCN(C(=O)N[C@@H](CC(C)C)C(=O)NCC(=O)OC)c1ccccc1	> 100 µM	
COc1cc(Nc2cc(Cl)cc(Cl)c2)nc(N)n1	31.2 µM	
O=C(OC1OC2COC(=O)c3cc(O)c(O)c(O)c3-c3c(cc(O)c(O)c3O)C(=O)OC3C2OC(=O)[C@@]24CC(=O)[C@@](O)(OC25C(=O)O[C@H]2[C@@H](O)CO[C@@]25O)C2(O)Oc5c(O)c(O)cc(c5C24)C(=O)OC13)c1cc(O)c(O)c(O)c1 (some centres undefined)	> 100 µM	
C[C@H]1CCC/C=C/[C@@H]2C[C@H](OC(=O)CN(C)C)C[C@H]2[C@H](O)/C=C/C(=O)O1	1.48 µM	
C=C1CC[C@@H]2[C@](C)(COC(=O)CCC(=O)OC)CCC[C@@]2(C)[C@@H]1CCC1=CC(=O)OC1	> 100 µM	
COC(=O)c1c(C)cccc1C1CN=NC12Cc1cc(C)c(C)cc1C2=O (centres undefined)	> 100 µM	
CS(=O)(=O)CCC1CCC(=O)O1 (centres undefined)	> 100 µM	
O=C(Nc1ccc(Cl)cc1Cl)C1C(=O)OC2(CCCCC2)OC1=O	15.1 µM	
O=C1C(Cl)=CC2(C=C1Cl)CCN=c1c(O)c3c(c(O)c12)=NC=N3	> 100 µM	
CC(=O)Nc1nc2c(=O)c3ccccc3sc2s1	> 100 µM	
COC(=O)C1=C(OC)C(=P2(c3ccccc3)CC(c3ccccc3)=C2c2ccccc2)C(C(=O)OC)=C1C(=O)OC (centres undefined)	> 100 µM	
